Results reported in PMC9951859, “Investigation of α,ω-Disubstituted Polyamine-Cholic Acid Conjugates Identifies Hyodeoxycholic and Chenodeoxycholic Scaffolds as Non-Toxic, Potent Antimicrobials” (Antibiotics, 2023).
≈ marks a conversion by molar mass, not a printed value. Where “and” joins values, the source holds several entries; their conditions need not be identical. Equal entries are not always repeated. Entries after “also recorded” stand apart in the source; their conditions may differ. Where two headings read alike, the source gives them in different places.

Columns and labels:
[1] = test system: B lymphoma Wehi-231 cells; design: method as in PMID 19883637; details: read-out: EC50 for propidium iodide entry; cited from earlier work
[2] = test system: Klebsiella pneumoniae ATCC 700603; experiment: Antimicrobial MIC assay (CO-ADD) against K. pneumoniae; type: cell-based
Text: (§1) Antimicrobial evaluation against S. aureus (MRSA) (ATCC 43300), E. coli (ATCC 25922), K. pneumoniae (ATCC 700603), A. baumannii (ATCC 19606), C. albicans (ATCC 90028), and C. neoformans (ATCC 208821) was undertaken at the Community for Open Antimicrobial Drug Discovery at The University of Queensland (Australia) according to their standard protocols as reported previously.

[3] = test system: Candida albicans ATCC 90028; experiment: Antimicrobial MIC assay (CO-ADD) against C. albicans; type: cell-based; details: mean (n = 2)
Text: as §1

human red blood cells = experiment: Hemolytic assay; type: cell-based; details: concentration at 10% hemolytic activity on human red blood cells, mean (n = 2), top dose tested 32 μg/mL
Protocol: Hemolytic assays were conducted using the protocols previously reported.

[4] = test system: HEK293 human embryonic kidney cells; experiment: Cytotoxicity assay on HEK293; type: cell-based; details: concentration at 50% cytotoxicity on HEK293; mean (n = 2); top dose tested 32 μg/mL
Protocol: (§2) Cytotoxicity assays were conducted using the protocols previously reported.

[5] = Cytotoxicity assay on HEK293; type: cell-based, human; details: human, concentration at 50% cytotoxicity on HEK293, mean (n = 2), top dose tested 32 μg/mL
Protocol: as §2

[6] = test system: Pseudomonas aeruginosa ATCC 27853; experiment: Antimicrobial MIC assay (CO-ADD) against P. aeruginosa; type: cell-based
[7] = test system: Acinetobacter baumannii ATCC 19606; experiment: Antimicrobial MIC assay (CO-ADD) against A. baumannii; type: cell-based
Text: as §1

[8] = test system: Cryptococcus neoformans ATCC 208821; experiment: Antimicrobial MIC assay (CO-ADD) against C. neoformans; type: cell-based
Text: as §1

erythrocytes = test system: erythrocytes; design: method as in PMID 11806717; details: hemolytic activity; read-out: EC50 for hemoglobin release from erythrocytes; cited from earlier work
[9] = test system: Escherichia coli ATCC 25922; experiment: Antimicrobial MIC assay (CO-ADD) against E. coli; type: cell-based
Text: as §1

[10] = test system: Bacillus cereus ATCC 11778; experiment: Real time growth curves, Bacillus cereus; type: cell-based
Protocol: (§3) Solutions of compound 7e at concentrations of 2, 4 and 16 µg/mL were tested each in triplicate against S. aureus ATCC 25923, S. aureus MRSA (CF-Marseille) and Bacillus cereus ATCC 11778. Typically, in a 96 well plate was placed 10 µL of 40, 80 and 320 µg/mL stock solutions of compound 7e as well as 190 µL of a 5 × 10^5 CFU/mL of the selected bacterial suspension in brain heart infusion (BHI) broth. Positive controls containing only 200 µL of a 5 × 10^5 CFU/mL of bacterial suspension in BHI and negative controls containing only 200 µL of BHI broth were added. The plate was incubated at 37 °C in a TECAN Spark Reader […] and real time bacterial growth was followed with OD590 nm measurements every 10 min during 19 h.

[11] = test system: Bacillus cereus ATCC 11778; experiment: Broth microdilution MIC (CA-SFM), Bacillus cereus; type: cell-based; details: ATCC11778; classical microdilution, Bacillus cereus ATCC 11778, 18 h at 37 °C
Protocol: (§4) Additional antimicrobial evaluation against S. aureus (ATCC 25923), S. aureus MRSA (CF-Marseille) and Bacillus cereus (ATCC 11778) was determined in microplates using the standard broth dilution method in accordance with the recommendations of the Comité de l’AntibioGramme de la Société Française de Microbiologie (CA-SFM). Briefly, the minimal inhibitory concentrations (MICs) were determined with an inoculum of 10^5 CFU in 200 µL of MHB containing two-fold serial dilutions of each drug. […] To determine all MICs, the measurements were independently repeated in triplicate.

[12] = test system: S. aureus MRSA (CF-Marseille); experiment: Broth microdilution MIC (CA-SFM), S. aureus MRSA (CF-Marseille); type: cell-based; details: Staphylococcus aureus, 18 h
Protocol: as §4

S. aureus ATCC 25923 [13] = experiment: Real time growth curves, S. aureus ATCC 25923; type: cell-based, Staphylococcus aureus
Protocol: as §3

[14] = test system: S. aureus MRSA (CF-Marseille); experiment: Real time growth curves, S. aureus MRSA (CF-Marseille); type: cell-based, Staphylococcus aureus; details: BHI, 1 to 19 h, at 3.2 μM (4 µg/mL) and 12.7 μM (16 µg/mL)
Protocol: as §3

S. aureus ATCC 25923 [15] = experiment: Broth microdilution MIC (CA-SFM), S. aureus ATCC 25923; type: cell-based; details: Staphylococcus aureus, ATCC25923; classical microdilution, S. aureus ATCC 25923, 18 h at 37 °C
Protocol: as §4

[16] = test system: Bacillus cereus ATCC 11778; experiment: Minimum bactericidal concentration test, Bacillus cereus; type: cell-based
Protocol: (§5) A pure culture of a specified microorganism was grown overnight, then diluted in growth-supporting broth (typically Mueller Hinton II broth) to a concentration between 1 × 10^5 and 1 × 10^6 CFU/mL. A stock dilution of the antimicrobial test compound was made at approximately 100 times the expected, previously determined MIC. Further 1:1 dilution was made in 96 well microtiter plates. All dilutions of the test compound were inoculated with equal volumes of the specified microorganism (typically 100 µL). […] An aliquot of the positive control was plated and used to establish a baseline concentration of the microorganism used. The microtiter plates were then incubated at 37 °C for 24 h. Turbidity indicates growth of the microorganism, and the MIC is the lowest concentration where no growth was visually observed. To determine the minimum bactericidal concentration (MBC), the dilution representing the MIC and at least two of the more concentrated test product dilutions was plated on a solidified agar plate to determine the bacterial viability. The MBC is the lowest concentration where no growth is encountered when compared to the MIC dilution.

[17] = test system: Staphylococcus aureus ATCC 43300 (MRSA); experiment: Antimicrobial MIC assay (CO-ADD) against S. aureus MRSA; type: cell-based; details: Staphylococcus aureus, read-out: MIC S.a.
Text: as §1

S. aureus = experiment: ATP release bioluminescence assay; type: cell-based, Staphylococcus aureus; details: followed over 30 min after exposure, CTAB (1%) positive control
Protocol: Solutions of the test compound 7e were prepared in DMSO at various concentrations. A suspension of growing S. aureus to be studied in Muller-Hinton II broth was prepared and incubated at 37 °C. An aliquot (90 µL) of this suspension was added to 10 µL of test compound solution and vortexed for 10 s. Luciferin–luciferase reagent (Yelen, France; 50 µL) was immediately added to this mixture, and luminescent signal quantified with an Infinite M200 microplate reader (Tecan) over a 30 min period; ATP concentration was quantified using internal sample addition. A similar procedure was used for the CTAB positive control.

P. aeruginosa ATCC 27853 = experiment: Antibiotic enhancement of doxycycline; type: cell-based, Pseudomonas aeruginosa; details: doxycycline at 2 μg/mL
Protocol: (§6) Restoring enhancer concentrations were determined with an inoculum of 5 × 10^5 CFU in […] of MH broth containing two-fold serial dilutions of each derivative in the presence of either doxycycline or erythromycin at 2 μg/mL. […] These measurements were independently repeated in triplicate.

[18] = test system: S. aureus MRSA (CF-Marseille); experiment: Minimum bactericidal concentration test, S. aureus MRSA (CF-Marseille); type: cell-based, Staphylococcus aureus
Protocol: as §5

E. coli ATCC 25922 = experiment: Antibiotic enhancement of erythromycin; type: cell-based, Escherichia coli; details: erythromycin at 2 μg/mL
Protocol: as §6

S. aureus ATCC 25923 [19] = experiment: Minimum bactericidal concentration test, S. aureus ATCC 25923; type: cell-based, Staphylococcus aureus
Protocol: as §5

CC(C)[C@@H](CC[C@@H](C)[C@H]1CC[C@H]2[C@@H]3[C@H](O)C[C@H]4C[C@@H](NCCCNCCCCN)CC[C@]4(C)[C@H]3CC[C@]12C)OS(=O)(=O)O [Compound 1, Squalamine, reference compound]
EC50 [1]: 51 µM | MIC ([2]; ATCC700603, Klebsiella pneumoniae ATCC 700603, mean (n = 2), read-out: MIC K.p.): ≤ 0.28 µM | MIC ([2]; Klebsiella pneumoniae ATCC 700603, mean (n = 2), read-out: MIC K.p.): ≤0.28 µM | MIC ([3]; ATCC90028, Candida albicans ATCC 90028, read-out: MIC C.a.): 4.5 µM (≈ 2.83 µg/mL) | Hemolysis (HC10) (human red blood cells): >36 µM | Hemolysis (HC10) (human red blood cells; listed as squalamine): lack of toxicity indicators | Cytotoxicity (IC50) [4]: lack of toxicity indicators | IC50 [5]: > 36 µM | MIC ([6]; ATCC27853, Pseudomonas aeruginosa ATCC 27853, mean (n = 2), read-out: MIC P.a.): 18 µM (≈ 11.3 µg/mL) | MIC ([7]; ATCC19606, Acinetobacter baumannii ATCC 19606, mean (n = 2), read-out: MIC A.b.): ≤ 0.28 µM | MIC ([7]; Acinetobacter baumannii ATCC 19606, mean (n = 2), read-out: MIC A.b.): ≤0.28 µM | MIC ([8]; ATCC208821, Cryptococcus neoformans ATCC 208821, mean (n = 2), read-out: MIC C.n.): 0.56 µM (≈ 0.352 µg/mL) | EC50 (erythrocytes): 80 µM | MIC ([9]; ATCC25922, Escherichia coli ATCC 25922, mean (n = 2), read-out: MIC E.c.): ≤ 0.28 µM | MIC ([9]; Escherichia coli ATCC 25922, mean (n = 2), read-out: MIC E.c.): ≤0.28 µM

C[C@H](CCC(=O)NCCCNCCCCCCCCCCNCCCNC(=O)CC[C@@H](C)[C@H]1CC[C@H]2[C@@H]3C[C@H](O)[C@@H]4C[C@H](O)CC[C@]4(C)[C@H]3CC[C@]12C)[C@H]1CC[C@H]2[C@@H]3C[C@H](O)[C@@H]4C[C@H](O)CC[C@]4(C)[C@H]3CC[C@]12C.O=C(O)C(F)(F)F.O=C(O)C(F)(F)F [Compound 7e, N^1,N^10-Bis(3-((R)-4-((3R,5R,6S,8S,9S,10R,13R,14S,17R)-3,6-dihydroxy-10,13-dimethylhexadecahydro-1H-cyclopenta[a]phenanthren-17-yl)pentanamido)propyl)decane-1,10-diaminium 2,2,2-trifluoroacetate]
time after which growth was exhibited ([10]; B. cereus, BHI, lowest tested concentration 1.6 μM (2 µg/mL)): 10 h | real time growth inhibition (OD 590 nm) ([10]; Bacillus cereus ATCC 11778, BHI, 1 to 19 h, at 3.2 μM (4 µg/mL) and 12.7 μM (16 µg/mL)): inhibited all three strains | MIC [11]: 3.2 µM and 4 µg/mL | MIC [12]: 3.2 µM and 4 µg/mL | time after which growth was exhibited (S. aureus ATCC 25923 [13]; S. aureus (strain not stated), BHI, lowest tested concentration 1.6 μM (2 µg/mL)): 13 h | real time growth inhibition (OD 590 nm) (S. aureus ATCC 25923 [13]; S. aureus ATCC 25923, BHI, 1 to 19 h, at 3.2 μM (4 µg/mL) and 12.7 μM (16 µg/mL)): inhibited all three strains | MIC ([2]; Klebsiella pneumoniae, ATCC700603, read-out: MIC K.p.): > 25 µM | real time growth inhibition (OD 590 nm) [14]: inhibited all three strains | MIC ([3]; Candida albicans, ATCC90028, read-out: MIC C.a., Candida albicans ATCC 90028): ≤ 0.2 µM | Hemolysis (HC10) (human red blood cells): >25 µM | MIC (S. aureus ATCC 25923 [15]): 1.6 µM and 2 µg/mL | IC50 ([5]; HEK293 human embryonic kidney cells): > 25 µM | MIC ([6]; Pseudomonas aeruginosa, ATCC27853, read-out: MIC P.a.): > 25 µM | MBC/MIC ratio ([16]; Bacillus cereus ATCC 11778 (one of three Gram-positive strains)): approximately one | minimum bactericidal concentration (MBC) ([16]; Bacillus cereus ATCC 11778, stated relative to MIC (3.2 μM, 4 μg/mL)): The same values were observed | MIC [17]: ≤ 0.2 µM | MIC ([7]; Acinetobacter baumannii, ATCC19606, read-out: MIC A.b.): > 25 µM | ATP release (extracellular ATP, bioluminescence) (S. aureus): inability of 7e to induce ATP release; also recorded: failed to cause ATP release | MIC ([8]; Cryptococcus neoformans, ATCC208821, read-out: MIC C.n.): 0.8 µM | enhancement of antibiotic activity of doxycycline (P. aeruginosa ATCC 27853): No enhancement was observed | MBC/MIC ratio ([18]; S. aureus MRSA (CF-Marseille) (one of three Gram-positive strains)): approximately one | minimum bactericidal concentration (MBC) ([18]; S. aureus MRSA (CF-Marseille), stated relative to MIC (3.2 μM, 4 μg/mL)): The same values were observed | enhancement of antibiotic activity of erythromycin (E. coli ATCC 25922): No enhancement was observed | MIC ([9]; Escherichia coli, ATCC25922, read-out: MIC E.c.): > 25 µM | MBC/MIC ratio (S. aureus ATCC 25923 [19]; S. aureus ATCC 25923 (one of three Gram-positive strains)): approximately one | minimum bactericidal concentration (MBC) (S. aureus ATCC 25923 [19]; S. aureus ATCC 25923, stated relative to MIC (1.6 μM, 2 μg/mL)): The same values were observed
